Data published in patent US8318949B2, “Organic compounds” (Novartis AG, priority 2008, dated 2012).

Columns and labels:
[1] = molecular target: T1, stearoyl-CoA desaturase (SCD1) (Mus musculus, UniProt P13516); assay: Stearoyl-CoA desaturase inhibition, mouse liver microsomes (release of 3H2O from [9,10-3H]stearoyl-CoA); type: biochemical; settings: 15 min incubation, 25° C., read-out: Microsomal IC50
T1 construct: Male ICR outbread mice, on a high-carbohydrate, low fat diet; from tissue; host or cells: liver microsomes of male ICR mice on a high-carbohydrate, low fat diet
T1 sequence (P13516 1-355): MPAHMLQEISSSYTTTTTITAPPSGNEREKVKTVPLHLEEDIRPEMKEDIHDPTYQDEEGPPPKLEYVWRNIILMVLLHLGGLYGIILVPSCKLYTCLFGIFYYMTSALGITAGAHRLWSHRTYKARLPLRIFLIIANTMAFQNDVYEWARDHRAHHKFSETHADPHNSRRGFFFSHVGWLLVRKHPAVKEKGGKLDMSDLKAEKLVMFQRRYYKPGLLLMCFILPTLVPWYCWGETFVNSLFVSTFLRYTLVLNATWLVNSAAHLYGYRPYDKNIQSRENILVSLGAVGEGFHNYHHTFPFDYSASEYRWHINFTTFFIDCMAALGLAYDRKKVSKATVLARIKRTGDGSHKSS
Excerpt: The identification of compounds of the invention as SCD inhibitors was readily accomplished using the SCD enzyme and microsomal assay procedure described in Shanklin J. and Summerville C., Proc. Natl. Acad. Sci. USA (1991), Vol. 88, pp. 2510-2514.
Measuring Stearoyl-CoA Desaturase Inhibition Activity of a Test Compound Using Mouse Liver Microsomes
The identification of compounds of the invention as SCD inhibitors was readily accomplished using the SCD microsomal assay procedure described in Shanklin J. and Summerville C., Proc. Natl. Acad. Sci. USA (1991), Vol. 88, pp. 2510-2514.
Male ICR outbread mice, on a high-carbohydrate, low fat diet, under light halothane (15% in mineral oil) anesthesia are sacrificed by exsanguination during periods of high enzyme activity. Livers are immediately rinsed with cold 0.9% NaCl solution, weighed and minced with scissors. All procedures are performed at 4° C. unless specified otherwise. Livers are homogenized in a solution (1/3 w/v) containing 0.25 M sucrose, 62 mM potassium phosphate buffer (pH 7.0), 0.15 M KCl, 15 mM N-acetyleysteine, 5 mM MgCl2, and 0.1 mM EDTA using 4 strokes of a Potter-Elvehjem tissue homogenizer. The homogenate is centrifuged at 10,400×g for 20 min to eliminate mitochondria and cellular debris. The supernatant is filtered through a 3-layer cheesecloth and centrifuged at 105,000×g for 60 min. The microsomal pellet is gently resuspended in the same homogenization solution with a small glass/teflon homogenizer and stored at −70° C. The absence of mitochondrial contamination is enzymatically assessed. The protein concentration is measured using bovine serum albumin as the standard.
Desaturase activity is measured as the release of ^3H2O from [9,10-^3H]stearoyl-CoA. Reactions per assay point conditions are as follows: 2 μL 1.5 mM stearoyl-CoA, 0.25 μL 1 mCi/mL ^3H stearoyl CoA, 10 μL 20 mM NADH, 36.75 μL 0.1 M PK buffer (K2HPO4/NaH2PO4, pH 7.2). The test compound or control solution is added in a 1 μL volume. Reactions are started by adding 50 μL of microsomes (1.25 mg/mL). The plates are mixed and after 15 min incubation on a heating block (25° C.), the reactions are stopped by the addition of 10 μL 60% PCA. An aliquot of 100 μL is then transferred to a filter plate pretreated with charcoal and the plate centrifuged at 4000 rpm for 1 minute. The flow through containing the ^3H2O released by the SCD1 desaturation reaction is added to scintillation fluid and the radioactivity measured in a Packard TopCount. The data is analysed to identify the IC50 for test compounds and reference compounds.
The activity was defined in terms of % SCD enzyme activity remaining at the desired concentration of the test compound or as the IC50 concentration. The IC50 (affinity) of the example compounds toward the stearoyl-CoA desaturase is comprised between around […] and 0.0001 μM or between around 5 μM and 0.0001 μM or between around 1 μM and 0.0001 μM.

melting point [°C] | IC50 [1] [nM] | SMILES
135 to 136 | 36 | Cc1nc(N2C[C@@H](C)N(Cc3ccc(F)cc3)C2=O)sc1C(=O)NCc1cccnc1 [Example 2.7, (R)-2-(3-(4-Fluorobenzyl)-4-methyl-2-oxoimidazolidin-1-yl)-4-methyl-N-(pyridin-3-ylmethyl)thiazole-5-carboxamide]
209 to 214 | 186 | Cc1nc(N2CCN(Cc3cccc(C(F)(F)F)c3)C2=O)sc1-c1cc[nH]n1 [Example 17.2, 1-(4-methyl-5-(1H-pyrazol-3-yl)thiazol-2-yl)-3-(3-(trifluoromethyl)benzyl)imidazolidin-2-one]
 | 527 | Cc1nc(N2CCN(Cc3ccc(S(C)(=O)=O)cc3)C2=O)sc1C(N)=O [Example 20-133, 4-methyl-2-(3-(4-(methylsulfonyl)benzyl)-2-oxoimidazolidin-1-yl)thiazole-5-carboxamide]
